From patent US20100260680A1, “NOVEL BONE MASS INCREASING AGENT” (ORIENTAL YEAST CO., LTD., priority 2007, published 2010)
Bridges are numbered along the chain shown (N, C = ends). Where no end group is shown, it is not given here.

Assays:
Human osteoblasts = test: ALP activity determination in human osteoblasts; assay type: cell-based; settings: antibodies 100 ng/mL or 1 ng/mL; culture for 5 or 6 days
Procedure: Seven days after differentiation, the culture supernatant was removed from each plate and the cells were fixed with an acetone/ethanol solution. The ALP activity was determined using p-nitrophenyl phosphate as a substrate. Specifically, a carbonate buffer (5 mM MgCl2, 50 mM NaHCO3) containing p-nitrophenyl phosphate (Nacalai) (1 mg/mL) was added to each well (100 μL/well), followed by incubation at 37° C. Then, the OD value at 405 nm was determined with the use of a microplate reader (BMG Labtech) for each well.
The reagents such as anti-RANKL polyclonal antibodies and anti-RANKL monoclonal antibodies used in this Example were the same as those used in Example 4. In addition, an anti-RANKL monoclonal antibody ((C): clone 12A380) (ALEXIS), human OPGFc, and human RANKFc (R&D)) were used. ALP activity determination was carried out as in Example 1. All of the above antibodies are antibodies against mouse RANKL.
Human osteoblasts were seeded on a 96-well plate (3.1×10^3/well) and a 48-well plate (7.65×10^3/well). After cell adhesion had taken place, differentiation was carried out using a medium containing 5 mM β-glycerophosphoric acid. The antibodies were added (100 ng/mL or 1 ng/mL) upon differentiation. Culture was carried out for 5 or 6 days, followed by ALP activity determination.

[1] = tested on: human alkaline phosphatase (hALP) and human type I collagen (hCollagen I); test: RT-PCR analysis of hALP and hCollagen I in human mesenchymal stem cells; assay type: cell-based
Procedure: Human mesenchymal stem cells (3×10^4 cells) were seeded on a 6-well plate, followed by culture for 7 days in the presence of an osteoblast differentiation medium (Lonza) or a maintenance medium (Lonza). Peptide D (100 μM and 300 μM) was added to each well. Further, a peptide solvent was added to a control group. After culture, the cells were washed with PBS and dissolved in QIAzol Lysis Reagent (QIAGEN) (0.75 mL). Then, the solution was collected. The solution was left at room temperature for 5 minutes. Then, chloroform (Wako) (0.15 mL) was added, the resultant was admixed by turning upside down, and then the resultant was centrifuged under conditions of 4° C. and 12000×g for 15 minutes. The supernatant was collected in a new tube. RNA was isolated from the supernatant with the use of an EZ1 RNA universal tissue kit (QIAGEN) and Magtration System 12GC (QIAGEN). After determination of the RNA concentration, each RNA (250 ng) was subjected to electrophoresis with 1% agarose gel for confirmation of the occurrence or nonoccurrence of RNA degradation. Non-degraded RNAs (500 ng each) were subjected to RT-PCR. RT-PCR was performed using a ThermoScript RT-PCR System (Invitrogen) and random primers. […]
Samples obtained after the PCR reaction were subjected to electrophoresis with 1% agarose gel. […] The obtained images were analyzed with a CSAnalyzer. […]

MC3T3-E1 cells = test: DNA microarray analysis of MC3T3-E1 cells; assay type: cell-based, mouse; settings: 200 μM peptide D (acetate)
Procedure: MC3T3-E1 cells mixed with 10% FBS+αMEM (SIGMA) were seeded on a 10 cm dish (2×10^5 cells/well). After 12 hours, the medium was removed therefrom. […] The medium was partially removed at 12 and 96 hours, at which time TRIZOL solution (Invitrogen) (3 mL) was added to each well for cell lysis. Then, total RNA extraction was carried out by the method described in Example 15. Each extracted total RNA (2 μg) was subjected to DNA microarray analysis (Mouse Genome 430 2.0 Affymetrix). In addition, scanning was performed with a GeneChip Scanner 3000 (Affymetrix 690036) and digitalization was performed with the Gene Chip Operating Software ver. 1.4.

With “peptide D: cyclic peptide of SEQ ID NO: 7, 9 amino acids, two cysteine residues bound via a disulfide bond; binds to RANKL (YCWSQYLCY; disulfide 2-8 (inferred))” as the substance, how does the ALP activity (Human osteoblasts) read?
The ALP activity was “significant increase in ALP activity”.

What about the “expression levels of alkaline phosphatase and type I collagen” value ([1]; 100 μM and 300 μM, 7-day differentiation) of the same substance?
Its value is “increased in a peptide-concentration-dependent manner”.

And the “mRNA expression levels of alkaline phosphatase and type I collagen” value ([1]; 300 μM, maintenance medium)?
The value was “caused increases in the mRNA expression levels”.

What about the “expression level of the osteocalcin (OC) gene” value (MC3T3-E1 cells) of the same substance?
Its value is “increased sharply”.

What about the “gene expression levels of IRS-1, IGF-1, FGF receptor 2, PDGF receptor β, PDGF receptor α, CTGF, type I collagen α1 and α2 chains” value (MC3T3-E1 cells; 12 hours) of the same substance?
The value was “increased significantly”.

What about the “gene expression levels of IGF-2, ALP, BMP-4, OC (osteocalcin), FGF2, PDGFc, PDGFα, PDGFβ” value (MC3T3-E1 cells; 96 hours) of the same substance?
The value was “increased significantly”.
